# Test results reported in patent US20210269734A1, “POLYISOBUTYLENE-SUBSTITUTED PHENOL, DERIVATIVES THEREOF, AND LUBRICATING COMPOSITIONS CONTAINING THE POLYISOBUTYLENE-SUBSTITUTED PHENOL AND ITS DERIVATIVES” (The Lubrizol Corporation, priority 2016, published 2021).
# Read-outs that look alike come from different tables or passages of the source.
# Tests used:
# Daphnia sp. [1] = details: OECD Test No. 202 acute immobilisation
# Method: The polyisobutylene substituted phenol described in Example 1 was tested for Acute Ecotox Value for Invertebrate using the OECD Guidelines for the Testing of Chemicals, Test No. 202 Daphnia sp. Acute Immobilisation Test (2004). Samples of alkyl-phenols having C4 and C8 alkyl groups were compared to the Sample of Example 1. A published test value for PDDP using the same test method is also included as a comparison.
# Daphnia sp. [2] = details: published value, same test method; Daphnia magna, Sewell & McKenzie (2005a); cited from earlier work
Substance,Acute Ecotox Value for Invertebrate daphnid (EC50) (Daphnia sp. [1]),Acute Ecotox Value for Invertebrate daphnid (EC50) (Daphnia sp. [2])
350 Mn polyisobutylene-alkylated phenol [Example 1],>100 µg/mL,
PDDP [Comparative Ex. 3],,0.037 µg/mL
